Data: patent US9504251B2, “Pesticidal compositions and related methods” (Dow AgroSciences LLC, priority 2014, dated 2016)

What was measured:
[1] = tested on: Sweetpotato Whitefly-crawler (Bemisia tabaci) (WF) (BEMITA); assay: Sweetpotato whitefly-crawler (WF) foliar spray assay on cotton plants; format: in vivo; conditions: 216 h, 200 ppm foliar spray on cotton plants, graded after 9 days, Abbott-corrected % control, disclosed compounds (TABLE 2), read-out: WF % Control (or Mortality) rating
Description: Foliar spray assay for WF was prepared as follows: Cotton plants (Gossypium hirsutum) grown in 3-inch pots, with 1 small (4-5 cm) true leaf, were used as test substrate. The plants were infested with 200-400 whitefly eggs 4-5 days prior to chemical application. Four pots with individual plants were used for each treatment. Tested compounds (2 mg) were dissolved in 1 mL of acetone solvent, forming stock solutions of 2000 ppm tested compound.
The stock solutions were diluted ten times with 0.025% TWEEN® 20 surfactant in H2O (diluents) to obtain the solution at 200 ppm tested compound. A hand-held aspirator-type sprayer was used for spraying the solution to both sides of cotton leaves until runoff. The control plants (solvent check) were sprayed with the diluent only containing 10% by volume of acetone solvent. Treated plants were held in a holding room for 9 days at approximately 25° C. and ambient relative humidity (RH) prior to grading. Evaluation was conducted by counting the number of live 3-4 nymph stage per plant under a microscope. Percent control was measured by using Abbott's correction formula (W. S. Abbott, “A Method of Computing the Effectiveness of an Insecticide,” J. Econ. Entomol. 18 (1925), pp. 265-267) as follows. Corrected % Control=100*(X−Y)/X
X=No. of live nymphs on solvent check plants and
Y=No. of live nymphs on treated plants.
(§1) The comparative compounds were tested for insecticidal activities against GPA and WF pests using the same test protocols described above for the disclosed compounds.

[2] = tested on: Green Peach Aphid (Myzus persicae) (GPA) (MYZUPE); assay: Green peach aphid (GPA) foliar spray bioassay on cabbage seedlings; format: in vivo; conditions: 72 h, 200 ppm foliar spray on cabbage seedlings, graded after three days, Abbott-corrected % control, disclosed compounds (TABLE 2), read-out: GPA % Control (or Mortality) rating
Description: Bioassay for GPA was prepared as follows: Cabbage seedlings grown in 3-inch pots, with 2-3 small (3-5 cm) true leaves, were used as test substrate. The seedlings were infested with 20-50 GPA (adult and nymph stages) one day prior to chemical application. Four pots with individual seedlings were used for each treatment. The tested compounds (2 mg) were dissolved in 2 mL of acetone/methanol (1:1) solvent to form stock solutions of 1000 ppm tested compound. The stock solutions were diluted five times with an aqueous solution containing 0.025% TWEEN® 20 surfactant, which is polyoxyethylene (20) sorbitan monolaurate, to obtain the solution at 200 ppm tested compound. A hand-held aspirator-type sprayer was used for spraying the solution to both sides of cabbage leaves until runoff. The control plants (solvent check) were sprayed with the diluent only containing 20% by volume of acetone/methanol (1:1) solvent. Treated plants were held in a holding room for three days at approximately 25° C. and ambient relative humidity (RH) prior to grading. Evaluation was conducted by counting the number of live aphids per plant under a microscope. Percent control was measured by using Abbott's correction formula (W. S. Abbott, “A Method of Computing the Effectiveness of an Insecticide,” J. Econ. Entomol. 18 (1925), pp. 265-267) as follows. Corrected % Control=100*(X−Y)/X
X=No. of live aphids on solvent check plants and
Y=No. of live aphids on treated plants
as §1

O=C1c2cn(-c3cccnc3)nc2CCN1c1cccc(C(F)(F)F)n1 [Compound F46, 2-(3-Pyridyl)-5-[6-(trifluoromethyl)-2-pyridyl]-6,7-dihydropyrazolo[4,3-c]pyridin-4-one]
mortality at 200 ppm [1]: 0 to 80%
mortality at 200 ppm [2]: 80 to 100%

O=C1c2cn(-c3cccnc3)nc2CCN1c1cc(C(F)(F)F)ncn1 [Compound F48, 2-(3-Pyridyl)-5-[6-(trifluoromethyl)pyrimidin-4-yl]-6,7-dihydropyrazolo[4,3-c]pyridin-4-one]
mortality at 200 ppm [1]: 0 to 80%
mortality at 200 ppm [2]: 80 to 100%

O=C1c2cn(-c3cccnc3)nc2CCN1c1ccc(F)cn1 [Compound F49, 5-(5-Fluoro-2-pyridyl)-2-(3-pyridyl)-6,7-dihydropyrazolo[4,3-c]pyridin-4-one]
mortality at 200 ppm [1]: 0 to 80%
mortality at 200 ppm [2]: 80 to 100%

O=C1c2cn(-c3cccnc3)nc2CCN1Cc1ccc(C(F)(F)F)cc1 [Compound F50, 2-(3-Pyridyl)-5-[[4-(trifluoromethyl)phenyl]methyl]-6,7-dihydropyrazolo[4,3-c]pyridine-4-one]
mortality at 200 ppm [1]: 0 to 80%
mortality at 200 ppm [2]: 80 to 100%

CS(=O)(=O)CN1CCc2nn(-c3cccnc3)cc2C1=O [Compound F51, 5-((methylsulfonyl)methyl)-2-(pyridin-3-yl)-6,7-dihydro-2H-pyrazolo[4,3-c]pyridin-4(5H)-one]
mortality at 200 ppm [1]: 80 to 100%
mortality at 200 ppm [2]: 80 to 100%

O=C(CN1CCc2nn(-c3cccnc3)cc2C1=O)c1ccccc1 [Compound P18, 5-(2-oxo-2-phenylethyl)-2-(pyridin-3-yl)-2,5,6,7-tetrahydro-4H-pyrazolo[4,3-c]pyridin-4-one]
mortality at 200 ppm [1]: 80 to 100%
mortality at 200 ppm [2]: 80 to 100%
